Source: ChEMBL document CHEMBL1125648, “Quinazoline antifolates inhibiting thymidylate synthase: 4-thio-substituted analogues” (J Med Chem, 1991)
pIC50: −log10 of the molar value.

tested on: L1210; experiment: Growth inhibition of L1210 cells in culture; format: functional, cell-based; conditions: Mus musculus

SMILES | pIC50
CCN(Cc1ccc2ncnc(S)c2c1)c1ccc(C(=O)NC(CCC(=O)O)C(=O)O)cc1 (stereo not given) | 4.51
CCN(Cc1ccc2ncnc(SC)c2c1)c1ccc(C(=O)NC(CCC(=O)O)C(=O)O)cc1 (stereo not given) | 4.82

Continued, values first:

pIC50 | SMILES
5.13 | C#CCN(Cc1ccc2ncnc(S)c2c1)c1ccc(C(=O)NC(CCC(=O)O)C(=O)O)cc1 (stereo not given)
4.74 | C#CCN(Cc1ccc2nc(N)nc(S)c2c1)c1ccc(C(=O)NC(CCC(=O)O)C(=O)O)cc1 (stereo not given)
5.10 | C#CCN(Cc1ccc2nc(C)nc(S)c2c1)c1ccc(C(=O)NC(CCC(=O)O)C(=O)O)cc1 (stereo not given)
